Data reported in US3995033A, “Secondary phosphoric acid esters, composition and method of use” (priority 1971, dated 1976).
Structures can show the parent of a compound that is named as a salt.

Legend:
[1] = tested on: Slow Reacting Substance (SRS) contractions of isolated guinea-pig ileum; experiment: Antagonism to Slow Reacting Substance on the isolated guinea-pig ileum
Experimental: The antagonism to Slow Reacting Substance (SRS) is determined on the isolated guinea-pig ileum as described by Mathe & Standberg (Acta physiol. scand. 82:460, 1971). Purified SRS is obtained from cat paws perfused with compound 48/80 (Strandberg & Uvnas: Acta physiol. scand. 82.358, 1971). Sodium 4-(3-oxo-3-(2,4,6-trihydroxyphenyl)propyl)phenyl phenyl phosphate was tested in this system in several concentrations.

[2] = tested on: contractions produced by histamine and bradykinin, isolated guinea-pig ileum; experiment: Selectivity on the isolated guinea-pig ileum: histamine and bradykinin; conditions: concentrations as low as 5 μg/ml
[3] = tested on: PGE1-stimulated ovarian glycolysis; experiment: In vivo action on prostaglandin-stimulated glycolysis of the prepubertal ovary (i.p. injection, ovaries then incubated with PGE1); set-up: species or system Prepubertal rats of the Sprague-Dawley strain; conditions: injected i.p. (500 μg in 1 ml saline) one hour before removal of ovaries; PGE1 0.4 μg/ml, 2 hours
Experimental: Prepubertal rats, 24-26 days old, of the Sprague-Dawley strain, are injected intraperitoneally (i.p.) with 1 ml saline containing 500 μg sodium 3,5-dimethylphenyl 4-(3-(2,4,6-trihydroxyphenyl)-3-oxo-propyl)phenyl phosphate.
One hour later the animals are sacrified by cervical fracture and the ovaries are removed and trimmed free of extraneous tissue. The ovaries are then transferred to an incubation bath containing prostaglandin E1 (PGE1; 0.4 μg/ml) dissolved in Krebs bicarbonate buffer and incubated at 37° C for 2 hours with continuous shaking. The ovarian glyclysis is then determined by measuring the concentration of lactic acid in the incubation medium. The details of the method have been described previously (Perkley, T. & Ahren, K., Life Sciences Part I, 10:1387, 1971).

[4] = tested on: gerbil colon (ascending colon) in vivo; experiment: Smooth muscle stimulatory effect on the gerbil colon in vivo; set-up: species or system mongolian gerbils
Experimental: The experiments are performed with mongolian gerbils, anesthetized with pentobarbital, 50 mg/kg. The ascending colon is exposed and carefully stretched between silk thread loops and a strain-gauge transducer.
After a stable base-line has been established an eter of this invention, sodium 3,5-dimethylphenyl 4-(3-(2,4,6-trihydroxyphenyl)-3-oxopropyl)phenylphosphate (Leo 1258) is infused i.v.

[5] = tested on: ovarian lactic acid production produced by PGE1; experiment: Prostaglandin-stimulated glycolysis of the prepubertal ovary in vitro; format: cell-based, prepubertal rats
Experimental: The action of esters of the present invention on the prostaglandin-stimulated glycolysis of the prepubertal ovary is investigated. The method used has been described in detail by Perklev & Ahren (Life Sciences Part I, 10:1387, 1971). In these experiments ovaries from prepubertal rats are removed and placed in Erlenmeyer flasks containing compounds of this invention dissolved in Krebs bicarbonate buffer. After that the ovaries have been preincubated during 60 min. at 37° C in this medium, they are blotted on filter paper and then washed for 2 min. in plain buffer. The ovaries are then transferred to a new incubation medium containing prostaglandins (PG) dissolved in Krebs bicarbonate buffer and incubated at 37° C for 2 hours with continuous shaking. The ovarian glycolysis is then determined by measuring the concentration of lactic acid in the incubation medium. When polyphloretin phosphate (PPP) is present in the preincubation medium in a concentration of 500 μg/ml, the subsequent ovarian lactic acid production produced by PGE1 is reduced to about 50 % of that obtained with ovaries preincubated in plain buffer.

[6] = tested on: anaphylactic bronchoconstriction elicited by antigen (egg albumin), isolated perfused guinea-pig lung; experiment: Anaphylactic bronchoconstriction in the isolated perfused lung of sensitized guinea-pigs
Description: The effects of esters of the present invention on the anaphylactic reaction in guinea-pigs have been investigated using the isolated perfused guinea-pig lung preparation as described by Bhattacharya & Delaunois (Arch. Int. Pharmacodyn. 101:495, 1955). Guinea-pigs weighing about 300 g are sensitized with egg albumin according to Fredholm & Strandberg (1969). After the appropriate sensitization period the lungs are removed and mounted in a moist, thermostated chamber. The trachea and A. pulmonalis are cannulated. The arterial cannula is connected to a perfusion fluid reservoir containing Tyrode solution buffered with 10 % Sorensen phosphate buffer. The tracheal cannula is connected with tubing to a carbogen gas supply delivering a constant amount per time unit. The perfusion pressure is measured in a side arm of the tubing with a "Mercury" transducer connected to an Ultralette UV-recorder. When antigen (egg albumin), 0.1 - 1.0 μg, is injected via the arterial cannula, a broncho-constriction, indicated by an increase in the perfusion pressure, is elicited.

[7] = tested on: bronchial smooth muscle, isolated perfused guinea-pig lung; experiment: Effect on bronchial smooth muscle, isolated perfused guinea-pig lung
Description: The effects of esters of the present invention on bronchial smooth muscle have been investigated using an isolated perfused guinea-pig lung preparation according to Thattacharya & Delaunois (Arch. Int. Pharmacodyn. 101:495, 1955). The lungs from guinea-pigs weighing 300-400 g are removed, and the trachea and A. pulmonalis cannulated. The arterial cannula is connected to a perfusion fluid reservoir containing Tyrode solution buffered with 10 % Sorensen phosphate buffer. The tracheal cannula is connected with tubing to a carbogen gas supply delivering a constant amount per time unit. The perfusion pressure is measured in a side arm of the tubing with a "Mercury" transducer connected to an Ultralette UV-recorder. The compounds are injected via the arterial cannula, close to the entrance of A. pulmonalis in the lung.

[8] = tested on: gerbil colon, contractions produced by prostaglandins E1, E2, F1α and F2α; experiment: PG-inhibitory effect on the isolated gerbil colon; set-up: species or system Gerbils (Meriones unguiculatus)
Experimental: The PG-inhibitory effect of esters of the present invention on the gerbil colon are determined using the general technique described by Eakins, Miller & Karim (J. Pharm. Exp. Ther. 176:441, 1971). Gerbils (Meriones unguiculatus) of own breed, both sexes, weighing 50-80 g are used. The animal is stunned, colon ascendens immediately removed, and a 2-3 cm piece mounted in a 6 ml bath containing a modified de Jalon solution at 28° C and continuously oxygenated. Contractions of the organ are registered either isotonicaly or isometrically. When testing the inhibitory effect of a compound this is added to the bath 2 min. before the addition of prostaglandin. The antagonist (esters of this invention) is usually dissolved in saline, but occasionally an organic solvent such as ethanol has to be included. Several concentrations of each antagonist are used. In this system prostaglandins E1, E2, F1α and F2α produce suitable contractions of the organ in the concentration range 1-50 ng/ml.
Results from these experiments give an approximation of the PG-inhibitory potency of the compounds. When more precise information about this is desired we use a more elaborate method involving the establishment of several […] dose-response curves in the presence of various concentrations of inhibitor. The method used is essentially the same as that described by Arunlakshana & Schild (Br. J. Pharm. 14:48, 1959). […]

[9] = tested on: PGE2-stimulated corticosterone production by adrenals; experiment: Prostaglandin-stimulated corticosterone production by rat adrenals in vitro; format: cell-based, Sprague-Dawley male rats; conditions: for Corticosterone production: mean ± standard error
Experimental: The inhibitory effect of esters of the present invention has been investigated on the prostaglandin-stimulated corticosterone production by adrenals from male rats in vitro. The experiments were performed using adult Sprague-Dawley male rats weighing 200-250 g, which were housed 1 per cage under conditions of controlled lighting and temperature. Animal quarters were not entered during the 18 hours preceding the experiment. The animals were sacrified by decapitation at 10 AM under conditions chosen to minimize disturbance of the animals. The adrenals were decapsulated and quartered and 8 adrenal quarters from different animals were distributed to 10 ml Erlenmeyer flasks containing 0.5 ml 0.9 % saline and 2.0 ml Krebs-Ringer bicarbonate buffer, pH 7.4. The weight of the adrenal tissue in each flask was determined. The flasks were gassed with 95 % O 2 -- 5 CO2 and preincubated at 37° C for 1 hour with continuous shaking. Following preincubation the media were decanted and discarded. One ml of Krebs-Ringer buffer, with or without the additions of prostaglandin E2 (PGE2) sodium 3,5-dimethylphenyl 4-(3-(2,4,6-trihydroxyphenyl)-3-oxopropyl)phenyl phosphate.
(for details see below) was added to the flasks, which were then gassed with 95 % 02 -- 5 % CO2 and kept at 37° C for 1 hour with continuous shaking. Following incubation, corticosterone levels were determined on 0.5 ml aliquots of the medium by the sulphuric acid fluorescence method.
In the first experiment (I) PGE2 in a concentration of 1 μg/ml was added to the incubation medium containing the quartered adrenals.
In the next experiment (II) different amounts of Leo 1258 to the incubation medium.

SMILES: O=C(CCc1ccc(OP(=O)([O-])Oc2ccccc2)cc1)c1c(O)cc(O)cc1O.[Na+] [sodium 4-(3-oxo-3-(2,4,6-trihydroxyphenyl)propyl)-phenyl phenyl phosphate]
- concentration that inhibits contractions produced by SRS ([1]; concentrations as low as): 5 µg/mL
- manner of the inhibition of SRS contractions ([1]; parallel shift of the dose-response curves, no change in maximum contraction): competitive
- inhibition of contractions produced by histamine and bradykinin [2]: not by histamine and bradykinin

SMILES: Cc1cc(C)cc(OP(=O)(O)Oc2ccc(CCC(=O)c3c(O)cc(O)cc3O)cc2)c1 [Leo 1258, sodium 3,5-dimethylphenyl 4-(3-(2,4,6-trihydroxyphenyl)-3-oxopropyl)phenylphosphate]
- ovarian glycolysis (lactic acid) compared with saline-injected animals [3]: significantly reduced
- reaction of the gut ([4]; 1 mg/ml in the buffer solution superfusing the gut): increase in tone
- minimal effective dose ([4]; Meriones unguiculatus, iv, infused i.v., anesthetized gerbils, read-out: dose that causes the gut to respond with a series of contractions): ≥ 40 mg/kg
- activity as a prostaglandin inhibitor relative to PPP [5]: 5-10 times
- IC50 ([5]; Rattus norvegicus, 60 min. preincubation, then 2 hours with PG, read-out: concentration in the preincubation medium giving about 50 % reduction of the lactic acid production produced by PGE1): 50 to 100 mg/L
- effect on the anaphylactic bronchoconstriction ([6]; 4-20 μg/ml incorporated in the Tyrode solution): abolished or markedly reduced
- dose showing a broncho-constricting effect ([7]; injected via the arterial cannula): ≥ 0.5 mg
- concentration for 50 per cent reduction of the PG-induced contraction, as fraction of that of PPP ([8]; relative to PPP): about one tenth
- effect on the PGE2-stimulated corticosterone production ([9]; 0.25 and 1.0 mg added to the incubation bath): dose-related inhibition
- Corticosterone production ([9]; Exp. II group A, Leo 1258 250 μg/ml without PGE2): 3.9±0.5 μg/100 mgx 1 h
- Corticosterone production ([9]; Exp. II group C, PGE2 1 μg/ml + Leo 1258 250 μg/ml): 6.5±0.5 μg/100 mgx 1 h
- Corticosterone production ([9]; Exp. II group D, PGE2 1 μg/ml + Leo 1258 1 mg/ml): 2.9±0.2 μg/100 mgx 1 h

SMILES: O=P(O)(Oc1ccccc1)Oc1ccccc1 [sodium salt of diphenyl phosphate, reference compound]
- effect on the gut ([4]; i.v., doses up to 400 mg/kg): no effect at all
- antagonism to SRS [1]: without effect
- effect on the anaphylactic bronchoconstriction ([6]; concentration 100 μg/ml): completely lacked such an effect
- broncho-constricting effect ([7]; dose of 12.8 mg): completely lacked such an effect
- PG-inhibitory effect on the gerbil colon ([8]; concentrations 10 times as high as that of PPP): without effect

SMILES: CCCCC[C@H](O)/C=C/[C@H]1[C@H](O)CC(=O)[C@@H]1C/C=C\CCCC(=O)O [PGE2, prostaglandin E2, reference compound]
- Corticosterone production ([9]; Exp. I, PGE2 1 μg/ml alone, 4 observ.): 7.6±0.4 μg/100 mgx 1 h
- Corticosterone production ([9]; Exp. II group B, PGE2 1 μg/ml alone): 8.4±0.5 μg/100 mgx 1 h
- effect on the corticosterone concentration ([9]; PGE2 1 μg/ml, Exp. I): highly significant increase
